These results are taken from US12461089B2, “Olfactory receptor involved in the perception of musk fragrance and the use thereof” (ChemoSensoryX Biosciences SA, priority 2017, dated 2025).

Where two headings read alike, the source gives them in different places.

Assay type in all cases: cell-based
The target in experiment [1] is T1, OR11A1 (Homo sapiens, UniProt Q9GZK7).
T1 construct: expressed in transfected cells; host or cells: HEK293T-RTP1A1/RTP2
T1 sequence (Q9GZK7 1-315): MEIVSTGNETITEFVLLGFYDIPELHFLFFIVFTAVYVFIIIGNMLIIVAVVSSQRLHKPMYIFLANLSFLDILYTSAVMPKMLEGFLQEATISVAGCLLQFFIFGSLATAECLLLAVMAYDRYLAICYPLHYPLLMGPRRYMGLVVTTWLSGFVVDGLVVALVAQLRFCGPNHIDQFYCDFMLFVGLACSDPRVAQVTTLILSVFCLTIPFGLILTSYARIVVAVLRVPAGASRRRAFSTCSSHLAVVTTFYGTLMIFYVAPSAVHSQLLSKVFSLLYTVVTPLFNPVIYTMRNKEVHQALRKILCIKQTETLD
Description: Luciferase reporter concentration-response analysis on OR11A1. Here is the method:
(§1) HEK293T-RTP1A1/RTP2 cells were maintained in minimal essential medium (EMEM, Lonza) containing 10% fetal bovine serum (M10). These cells were generated by transfecting HEK293T with an expression vector containing the sequences of the chaperone proteins RTP1A1 and RTP2 and a resistance gene to puromycin, using Lipofectamine 2000.
(§2) Odorant molecules were diluted at a concentration of 1 mole/liter (M) into dimethyl sulfoxide (DMSO) to generate stock solutions.
(§3) For concentration-response analysis, serial dilutions of the tested molecules were prepared from stock solutions in EMEM plated into 96-well plates.
(§4) For the initial deorphanisation screening and dose-response analysis, a Luciferase-based gene reporter assay (Promega, Leiden, The Nederlands) was used. Briefly, cells were platted on Poly-D-lysine-coated 96-well and transfected with a plasmid containing the CRE-luciferase and a plasmid containing the olfactory receptor. Sixteen hours after transfection, the culture medium was replaced by serum-free EMEM containing the tested compounds at a determined concentration. After four hours of incubation at 37° C. degree, cells were lysed and processed for luminescence measurement. Luminescene emission was recorded. Results were expressed as luciferase activity (Relative […] Unit (RLU)) or as percentage of the response induced by 10 μM of the adenylate cyclase activator Forskolin. An empty plasmid is used as negative control.
(§5) 35 musk compounds from the four structurally different chemical groups previously described were tested in concentration-response analyses (Table 2). In each experiment, an empty vector was used as negative control (pEFIBRHO). […] Full results including the calculated EC50 are given in Table 2; “non active” represent negative experiments, no activation after testing.
These compounds were tested in concentration-response analysis in luciferase assays, as described previously. In each experiment, an empty vector was used as negative control (pEFIBRHO).
A general note: Reporter assays use an easily measured gene product as a stand-in for the process of interest.

For experiment [2], the target named is T2, OR5A2_variant 1 (Homo sapiens, UniProt Q8NGI9).
T2 construct: expressed in transfected cells; host or cells: HEK293T-RTP1A1/RTP2
T2 sequence (Q8NGI9 1-324): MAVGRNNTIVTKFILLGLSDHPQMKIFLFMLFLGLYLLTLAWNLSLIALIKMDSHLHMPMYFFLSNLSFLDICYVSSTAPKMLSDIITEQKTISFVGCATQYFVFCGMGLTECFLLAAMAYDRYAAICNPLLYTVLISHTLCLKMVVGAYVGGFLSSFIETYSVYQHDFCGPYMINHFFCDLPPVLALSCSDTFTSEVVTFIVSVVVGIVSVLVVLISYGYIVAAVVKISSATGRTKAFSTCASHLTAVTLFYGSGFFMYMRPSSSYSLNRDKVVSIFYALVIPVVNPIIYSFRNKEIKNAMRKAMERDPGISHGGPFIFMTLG
Description: Luciferase reporter concentration-response analysis on OR5A2_variant 1. On the procedure: as §1, §2, §3, §4, §5

The target of experiment [3] is T3, OR5AN1 (Homo sapiens, UniProt Q8NGI8, E89G).
T3 construct: expressed in transfected cells; host or cells: HEK293T-RTP1A1/RTP2
T3 sequence (Q8NGI8 1-311 E89G): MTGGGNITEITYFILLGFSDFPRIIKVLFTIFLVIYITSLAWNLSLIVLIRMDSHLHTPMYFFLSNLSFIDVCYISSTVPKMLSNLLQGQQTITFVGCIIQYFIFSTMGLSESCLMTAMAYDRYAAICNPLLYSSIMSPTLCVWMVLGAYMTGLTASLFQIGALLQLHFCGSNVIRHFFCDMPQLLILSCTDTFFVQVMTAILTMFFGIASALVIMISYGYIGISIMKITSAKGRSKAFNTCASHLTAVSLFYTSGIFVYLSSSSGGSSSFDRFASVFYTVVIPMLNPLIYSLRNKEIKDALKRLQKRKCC
The experiment in a line: Luciferase reporter concentration-response analysis on OR5AN1. Conditions: concentration-response analysis, luciferase reporter, values given as negative (log) numbers, Non Active = no activation after testing; for EC50: read-out: calculated EC50, OR5AN1 (converted). On the procedure:
HEK293T-RTP1A1/RTP2 cells were maintained in minimal essential medium (EMEM, Lonza) containing 10% fetal bovine serum (M10). These cells were generated by transfecting HEK293T with an expression vector containing the sequences of the chaperone proteins RTP1A1 and RTP2 and a resistance gene to puromycin, using Lipofectamine 2000. The recombinant cell population, used in these experiments, was selected by adding 10 μg/ml of puromycin into the culture medium and subsequently subcloned (WO 2014/191047 A1).
as §2, §3, §4
In these analyses we also included ORs previously described as musk-specific receptors OR5AN1 (SEQ ID n° 7) (WO 2015/020158 A1, Shirasu et al. 2014 Neuron 81, 165-78, Sato-Akuhara N et al. 2016 J Neurosci. 36(16), 4482-91) and OR11A1 (SEQ ID n° 8) (WO 2016/201152 A1). […] Therefore, OR5A1 was included in the analyses. 35 musk compounds from the four structurally different chemical groups previously described were tested in concentration-response analyses (Table 2). In each experiment, an empty vector was used as negative control (pEFIBRHO). […] Full results including the calculated EC50 are given in Table 2; “non active” represent negative experiments, no activation after testing. […]

[4] abbreviates: concentration-response analysis, luciferase reporter, values given as negative (log) numbers, read-out: calculated EC50, OR5A2 (converted).
The mark [5] stands for this setting: concentration-response analysis, luciferase reporter, values given as negative (log) numbers, Non Active = no activation after testing, read-out: calculated EC50, OR11A1 (converted).
The mark [6] stands for this setting: concentration-response analysis, luciferase reporter, values given as negative (log) numbers.

As usually defined, the EC50 is the concentration at which the effect is half-maximal. For the compound `CC1CC(C)(C)c2ccc(C=O)cc2C1(C)C` (stereo not drawn) [Fixal], the EC50 in experiment [1] was 8.91 µM; in experiment [2], 10.2 µM. As to `CC1COCc2cc3c(cc21)C(C)(C)C(C)C3(C)C` (stereo not drawn) [Galaxolide ®], the EC50 in experiment [2] (setting [4]) was 1.05 µM.

As for `O=C1CCCCCC/C=C\CCCCCCC1` [Globanone (Animusk)], the 50% effective concentration (EC50) in experiment [2] (setting [4]) is 3.98 µM; in experiment [3], 2.24 µM. As to `O=C1CCCCCCCCC/C=C/CCCO1` [Habanolide], the results for the EC50 in experiment [2] and in experiment [3] were 16.2 µM and 66.1 µM, respectively. Regarding `Cc1c([N+](=O)[O-])cc2c(c1[N+](=O)[O-])C(C)(C)CC2(C)C` [Moskene, 1,1,3,3,5-pentamethyl-4,6-dinitro-2H-indene], the EC50 in experiment [2] (setting [4]) is 1.86 µM. Turning to `c1ncc2c(n1)CCCCCCCCCC2` [Musk 77], the EC50 in experiment [1] (setting [5]) was 9.12 µM; in experiment [2] (setting [4]), 5.13 µM. Take `COc1c(C(C)(C)C)cc([N+](=O)[O-])c(C)c1[N+](=O)[O-]` [Musk Ambrette, 2,6-dinitro-3-methoxy-4-tert-butyltoluene]: the EC50 is 8.71 µM in experiment [2] (setting [4]) and 692 µM in experiment [3]. On to `O=C1CCCCCCCCCCC(=O)OCCO1` [Musk MC4], for which the EC50 was 38 µM in experiment [2] (setting [4]) and 75.9 µM in experiment [3].

Consider `O=C1CCCCCCCCOCCCCCCO1` [Oxalide T], for which the results for the EC50 in experiment [2] (setting [4]) and in experiment [3] were 8.32 µM and 32.4 µM, respectively. Consider `CC(=O)c1cc2c(cc1C)C(C)(C)C(C)C2(C)C` (stereo not drawn) [Phantolide], for which the values for the EC50 in experiment [1] (setting [5]) and in experiment [2] (setting [4]) were 7.59 µM and 4.57 µM, respectively. As for `C/C(=C\C(C)C)C(C)OC(C)(C)COC(=O)C1CC1` (stereo not drawn) [Sylkolide], in experiment [2], the midpoint of the response, the EC50, lay at 17.8 µM.

As for `O=C1CCCCCCCCCCCCCCO1` [Thibetolide = Exaltolide], the values for the EC50 in experiment [2] (setting [4]) and in experiment [3] were 43.7 µM and 87.1 µM, respectively. Regarding `CC(=O)c1cc2c(cc1C)C(C)(C)C(C)CC2(C)C` (stereo not drawn) [Tonalide ®], the EC50 in experiment [1] (setting [5]) was 18.2 µM; in experiment [2] (setting [4]), 0.759 µM. Take `CC(=O)c1cc(C(C)(C)C)cc2c1CCC2(C)C` [crysolide]: the EC50 in experiment [2] (setting [4]) is 22.4 µM; in experiment [3] it was 120 µM. Take `C=C(C)C1CCC(C)=C1CC(C)(C)COC(=O)CC` (stereo not drawn) [cyclopentenyl propionate musk]: the EC50 in experiment [2] is 28.2 µM. As for `CC1CC(C)(C)C2=C(CC3(C)OC3C2)C1(C)C` (stereo not drawn) [malaxone], the EC50 in experiment [2] was 29.5 µM; in experiment [3], 309 µM.

On to `CC1C/C=C\CCCCCCCCC(=O)OCC1` (stereo not drawn) [nirvanolide], for which the EC50 in experiment [2] is 19.5 µM; in experiment [3], 417 µM. As for `CC(=O)c1cc2c(cc1C)C(C)(C)C(C)C2C(C)C` (stereo not drawn) [traseolide], the values for the EC50 in experiment [1] (setting [5]) and in experiment [2] (setting [4]) were 7.08 µM and 1.95 µM, respectively. Consider Cyclopenta- decanone, for which, in experiment [3], the “calculated EC50, OR5AN1” value is −4.95. Helvetolide: in experiment [2] (setting [6]), the “calculated EC50, OR5A2” value is recorded as −3.86. Still for that read-out and setting: next, Isoambrettolide: −4.72.

On to muscone, for which the “calculated EC50, OR5A2” value in experiment [2] (setting [6]) was −5.25. Besides, the “calculated EC50, OR5AN1” value in experiment [3] was −5.37.

Take ω-6-Hexadecen- lactone: the “calculated EC50, OR5A2” value in experiment [2] (setting [6]) is on record as −5.17. In addition, in experiment [3], the “calculated EC50, OR5AN1” value was −4.68.
